The values that follow come from patent publication US11213506B2, “Combination therapy for the treatment or prevention of tumours” (QBIOTICS PTY LTD, priority 2017, dated 2022).

Structures are written as SMILES.

Assay [1] concerns mouse stroma in SK-MEL-28 human melanoma xenografts. Kind of assay: Gene expression changes in mouse tumour stroma (Illumina BeadChip). It counts as in vivo, BALB/c Foxn1nu mouse. Particulars: 30 μg Compound 1 injected into the tumour. As for the experimental part:
The SK-MEL-28 human melanoma cell line was injected subcutaneously (s.c) into 2 sites on the flanks of each BALB/c Foxn1nu mouse (2 million cells/site) and allowed to grow to approximately 7 mm diameter. Each tumour was then injected with 50 μl of 20% propylene glycol containing 30 μg Compound 1 or with 50 μl of 20% propylene glycol. At different times after injection a mouse was euthanased and the tumours harvested, the skin covering removed, and the intact tumours stored at −80° C.
RNA was extracted from 30 mg of frozen tumour using the Qiagen RNeasy Plus Mini Kit, according to manufacturer's instructions, then quantitated with a NanoDrop instrument and integrity confirmed on denaturing agarose gels bearing a 1 kb DNA marker and stained with ethidium bromide.
Approximately 500 ng of total unlabelled RNA was adjusted to a final volume of 11 μl with nuclease-free water. The RNA was incubated with 9 μl of the reverse transcriptase master mix (1 μl of T7 Oligo (dT) Primer, 2 μl of 10× first strand buffer, 4 μl of dNTP mix, 1 μl of RNase inhibitor and 1 μl of ArrayScript) at 42° C. for 2 h. This was followed by the second strand cDNA synthesis step which involved a further incubation at 16° C. for 2 hr with 80 μl of the second strand master mix (63 μL nuclease-free water, 10 μl 10× second strand buffer, 4 μl dNTP mix, 2 μl DNA polymerase and 1 μl RNase H). The cDNA was purified by filtering through a cDNA Filter Cartridge with 250 μl of cDNA binding buffer and washing with 500 μl of the wash buffer provided in the kit. Purified cDNA was eluted with 20 μl of 55° C. nuclease-free water. Each cDNA sample was incubated with 7.5 μl of the IVT master mix (2.5 μl of T7 10× reaction buffer, 2.5 μl of T7 enzyme mix and 2.5 μl biotin-NTP mix) at 37° C. for 16 h. The reaction was stopped with the addition of 75 μl of nuclease-free water to each cRNA sample. The biotinylated, amplified RNA was purified by filtering the cRNA samples through cRNA Filter Cartridges with 350 μL of cRNA binding buffer and 250 μl of 100% ethanol mixed together prior to loading onto the filters. The cRNA filter cartridges with attached RNA were then washed with 650 μl of wash buffer before eluting purified cRNA with 200 μl of 55° C. nuclease-free water.
The cRNA samples were heated at 65° C. for 5 min and collected by pulse centrifugation. After heating at 65° C. for 5 min, approximately 750 ng of the cRNA sample was aliquoted into separate tubes to which were added ˜5 μl of RNase-free water and 10 μl of Hyb Mix. […]
BeadChips were read by the iScan System, and transferred via GenomeStudio into GeneSpring GX v12.5 (Agilent Technologies, Santa Clara, Calif., USA). […] The entities were filtered based on the detection score calculated by GenomeStudio where p≤0.05 was considered significant.

The test system of assay [2] is A431 cells. The assay can be described thus: Lactate dehydrogenase (LDH) release assay. It counts as cell-based, human. Particulars: 300 μM and 500 μM. As for the experimental part:
(§1) A431 (human epidermoid carcinoma), MM649 (human melanoma), B16-OVA (B16-F10 mouse melanoma cell line stably transfected with chicken ovalbumin), MM415 (human melanoma) and FaDu (human hypopharyngeal carcinoma) cells were cultured in RPMI-1640, 10% FCS (complete medium) at 37° C., 5% CO2 in a humidified incubator. All cell lines used in this study were confirmed as mycoplasma negative using MycoAlert (Lonza). STR profiling was also performed to confirm the identity of the human cell lines used.
(§2) Measuring the release of LDH is a well-recognised assay to assess plasma membrane permeabilisation and detect cell death by necrosis (Chan et al. 2013). Three cell lines (A431, MM649 and B16-OVA) were used in these assays. Cells were plated at a density of 10,000 cells per well into clear 96-well plates (Corning, #3595; 100 μl of complete media) and the resultant plates incubated overnight as previously detailed. The following day, media was aspirated from each well and 50 μl of fresh medium was inserted. Stock solutions of Compound 1 were diluted to 2× final assay concentrations (1 mM and 600 μM) and 50 μl of these dilutions added to the required wells. […] OD490 nm and OD690 nm readings were recorded for each sample using a Hybrid Synergy H4 plate reader. Absorbance readings from drug treated samples were normalized to detergent treated controls to determine the % LDH release per well.

Assay [3] deals with MM649 cells. The assay can be described thus: Lactate dehydrogenase (LDH) release assay. The conditions noted are these: 300 μM and 500 μM. It counts as cell-based, human. As for the experimental part:
as §1, §2

Assay [4] relates to A431 cells. The assay can be described thus: ATP release assay. It is filed as cell-based, human. The conditions noted are these: both concentrations (500 and 300 μM), within 60 minutes. On the procedure: (§3) A431 (human epidermoid carcinoma), MM649 (human melanoma) and B16-OVA (B16-F10 mouse melanoma cell line stably transfected with chicken ovalbumin) were cultured in RPMI-1640, 10% FCS (complete medium) at 37° C., 5% CO2 in a humidified incubator. BMDCs were cultured in R10 media (RPMI, 10% FCS, 2 mM glutamine, 50 μM beta-mercaptoethanol, Pen/Strep). All cell lines used in this study were confirmed as mycoplasma negative using MycoAlert (Lonza). STR profiling was also performed to confirm the identity of the human cell lines used.
(§4) Cell lines were plated at a density of 10,000 cells per well into clear 96-well plates (Corning, #3595; 100 μl of complete media) and the resultant plates incubated overnight as previously detailed. The following day, media was aspirated from each well and 50 μl of fresh medium was inserted. Stock solutions of Compounds 1, 2, 3 and 4 were diluted to 2× final assay concentration (1 mM and 600 μM) and 50 μl of these dilutions added to the required wells. Ethanol only control solutions were also compiled and administered. At the indicated timepoints, 80 μl of media was removed, centrifuged at 1,200 rpm for 4 mins to pellet cell debris and 50 μl assayed for ATP using a bioluminescence based ATP assay kit (FLAA, Sigma-Aldrich). Relative luminescence units were recorded for each sample using a Hybrid Synergy H4 plate reader (BioTek).

For assay [5], the system named is MM649 cells. Kind of assay: ATP release assay. It is filed as cell-based, human. The conditions noted are these: both concentrations (500 and 300 μM), within 60 minutes. On the procedure:
as §3, §4

As to `C/C=C(\C)C(=O)O[C@@H]1[C@@H](C)[C@@]2(O)[C@H]([C@@H]3C(C)(C)[C@]13OC(=O)[C@@H](C)CC)[C@@H]1O[C@]1(CO)[C@@H](O)[C@]1(O)C(=O)C(C)=C[C@H]12` [Compound 1, 12-tigloyl-13-(2-methylbutanoyl)-6,7-epoxy-4,5,9,12,13,20-hexahydroxy-1-tiglien-3-one], in assay [1], the “Cxcl1 expression at the tumour site” value is listed as “heavily upregulated”; the “expression of host cytokines/chemokines important for recruitment/activation of immune cells at the tumour site” value is reported as “upregulated”; the “host gene expression changes associated with a Th-1/M-like response: IFN-γ, TNF, IL-δ and IL-1β” value was “induction”. Moreover, the “TGF beta signalling (pathway analysis of gene expression)” value in assay [1] (t=8 h) was “downregulation”. Also, the “LDH release compared to the controls” value in assay [2] is reported as “significant release of LDH”. The “LDH release compared to the controls” value in assay [3] was “significant release of LDH”. For the same compound, in assay [4], the ATP release result is “significant release of ATP”. The ATP release result in assay [5] is on record as “significant release of ATP”.
